Laboratory results as given in patent EP4745137A1 (Gluetacs Therapeutics (Shanghai) Co., Ltd., priority 2023, dated 2025).

Legend:
IKZF2 = biological target: T1, IKZF2 (Homo sapiens, UniProt Q96SW2+Q9UKS7); experiment: Western-blot assay of substrate protein degradation in hPBMCs, IKZF2; format: cell-based; settings: 24 hours of compound treatment
T1 construct: endogenous in cells; host or cells: hPBMCs (Milecell Biotechnologies)

GSPT1 = biological target: T2, GSPT1 (Homo sapiens, UniProt P15170+Q96SW2); experiment: Western-blot assay of substrate protein degradation in hPBMCs, GSPT1; format: cell-based; settings: 24 hours of compound treatment
T2 construct: endogenous in cells; host or cells: hPBMCs (Milecell Biotechnologies)
T2 sequence (P15170 whole entry): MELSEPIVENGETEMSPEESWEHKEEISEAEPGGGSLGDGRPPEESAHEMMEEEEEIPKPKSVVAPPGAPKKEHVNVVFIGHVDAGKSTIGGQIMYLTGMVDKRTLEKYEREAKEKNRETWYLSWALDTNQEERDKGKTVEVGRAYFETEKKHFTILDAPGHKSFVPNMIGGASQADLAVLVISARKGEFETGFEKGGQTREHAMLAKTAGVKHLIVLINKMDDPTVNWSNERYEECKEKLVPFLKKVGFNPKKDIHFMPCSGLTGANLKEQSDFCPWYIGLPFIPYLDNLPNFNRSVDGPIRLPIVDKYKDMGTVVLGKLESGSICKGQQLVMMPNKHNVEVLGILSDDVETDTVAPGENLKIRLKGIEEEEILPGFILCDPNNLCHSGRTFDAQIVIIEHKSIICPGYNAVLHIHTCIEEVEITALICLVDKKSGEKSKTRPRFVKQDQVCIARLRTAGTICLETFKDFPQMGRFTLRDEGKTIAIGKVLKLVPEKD
T2 sequence (Q96SW2 whole entry): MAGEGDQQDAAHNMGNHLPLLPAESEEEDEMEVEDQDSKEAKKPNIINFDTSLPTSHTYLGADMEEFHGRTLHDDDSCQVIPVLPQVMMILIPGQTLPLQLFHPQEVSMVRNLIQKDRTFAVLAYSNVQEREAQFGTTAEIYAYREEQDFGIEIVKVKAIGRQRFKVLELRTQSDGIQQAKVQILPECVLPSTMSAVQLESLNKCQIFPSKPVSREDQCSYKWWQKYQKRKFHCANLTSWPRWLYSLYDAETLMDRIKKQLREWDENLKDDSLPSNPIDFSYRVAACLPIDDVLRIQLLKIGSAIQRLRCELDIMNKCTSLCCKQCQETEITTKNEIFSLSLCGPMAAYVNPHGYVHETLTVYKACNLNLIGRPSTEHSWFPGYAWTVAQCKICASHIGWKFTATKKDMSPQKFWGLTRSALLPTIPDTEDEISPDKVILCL
T2 sequence (Q16531 whole entry partner): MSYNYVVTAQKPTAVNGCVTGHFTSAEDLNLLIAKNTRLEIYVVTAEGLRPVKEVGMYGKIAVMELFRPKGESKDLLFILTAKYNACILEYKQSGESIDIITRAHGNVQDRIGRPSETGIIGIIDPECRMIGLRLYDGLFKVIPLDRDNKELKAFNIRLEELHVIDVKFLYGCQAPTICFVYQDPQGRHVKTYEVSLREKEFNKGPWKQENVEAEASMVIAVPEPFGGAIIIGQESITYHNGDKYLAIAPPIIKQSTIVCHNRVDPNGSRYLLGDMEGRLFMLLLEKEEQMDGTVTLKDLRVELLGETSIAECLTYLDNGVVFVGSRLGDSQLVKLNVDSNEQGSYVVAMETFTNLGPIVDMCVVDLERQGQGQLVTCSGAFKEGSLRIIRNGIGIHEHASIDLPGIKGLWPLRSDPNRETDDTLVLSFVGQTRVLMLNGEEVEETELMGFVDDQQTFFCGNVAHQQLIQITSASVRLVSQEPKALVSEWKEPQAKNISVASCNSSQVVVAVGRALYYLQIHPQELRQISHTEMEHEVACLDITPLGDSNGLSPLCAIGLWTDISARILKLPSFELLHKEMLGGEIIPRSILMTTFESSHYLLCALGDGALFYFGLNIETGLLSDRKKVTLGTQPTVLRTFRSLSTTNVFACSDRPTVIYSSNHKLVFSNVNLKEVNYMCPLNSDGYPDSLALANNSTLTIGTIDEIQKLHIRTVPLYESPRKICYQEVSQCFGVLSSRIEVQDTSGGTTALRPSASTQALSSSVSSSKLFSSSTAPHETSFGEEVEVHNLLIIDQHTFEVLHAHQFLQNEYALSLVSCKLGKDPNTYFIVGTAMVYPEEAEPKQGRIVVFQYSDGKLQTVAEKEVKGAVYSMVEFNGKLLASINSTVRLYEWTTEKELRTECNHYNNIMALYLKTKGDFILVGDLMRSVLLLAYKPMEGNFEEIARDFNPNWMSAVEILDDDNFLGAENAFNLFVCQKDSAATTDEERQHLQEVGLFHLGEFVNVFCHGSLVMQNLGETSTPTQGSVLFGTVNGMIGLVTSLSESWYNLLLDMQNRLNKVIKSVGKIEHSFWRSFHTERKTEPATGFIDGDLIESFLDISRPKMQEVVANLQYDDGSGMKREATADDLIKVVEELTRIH

IKZF1 = biological target: T3, IKZF1 (Homo sapiens, UniProt Q13422+Q96SW2); experiment: Western-blot assay of substrate protein degradation in hPBMCs, IKZF1; format: cell-based; settings: 24 hours of compound treatment
T3 construct: endogenous in cells; host or cells: hPBMCs (Milecell Biotechnologies)
T3 sequence (Q13422 whole entry): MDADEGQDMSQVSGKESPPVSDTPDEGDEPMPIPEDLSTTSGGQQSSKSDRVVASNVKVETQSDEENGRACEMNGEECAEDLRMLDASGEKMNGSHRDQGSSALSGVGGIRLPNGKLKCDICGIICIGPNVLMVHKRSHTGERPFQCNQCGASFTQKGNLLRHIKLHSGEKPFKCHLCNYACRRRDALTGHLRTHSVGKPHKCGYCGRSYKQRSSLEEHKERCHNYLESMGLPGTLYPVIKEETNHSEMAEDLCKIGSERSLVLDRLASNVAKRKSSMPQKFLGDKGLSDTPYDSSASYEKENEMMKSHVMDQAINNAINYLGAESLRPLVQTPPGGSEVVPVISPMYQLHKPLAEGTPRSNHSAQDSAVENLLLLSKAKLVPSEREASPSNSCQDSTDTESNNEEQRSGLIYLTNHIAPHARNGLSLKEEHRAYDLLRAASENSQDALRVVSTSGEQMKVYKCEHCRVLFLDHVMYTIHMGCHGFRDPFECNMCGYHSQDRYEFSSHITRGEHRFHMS
T3 sequence (Q96SW2 whole entry): as the sequence (Q96SW2 whole entry) above
T3 sequence (Q16531 whole entry partner): as the sequence (Q16531 whole entry partner) above

[1] = biological target: T4, human Cereblon WT GST-tagged protein (Homo sapiens, UniProt Q96SW2); experiment: CRBN-binding affinity by HTRF (CEREBLON BINDING kit); settings: HTRF inhibitory activity, CEREBLON BINDING kit; read-out: HTRF IC50
T4 construct: purchased CISBIO 64BDCRBNPEH
T4 sequence (Q96SW2 whole entry): as the sequence (Q96SW2 whole entry) above

WEE1 = biological target: T5, WEE1 (Homo sapiens, UniProt P30291+Q96SW2); experiment: Western-blot assay of substrate protein degradation in hPBMCs, WEE1; format: cell-based; settings: 24 hours of compound treatment
T5 construct: endogenous in cells; host or cells: hPBMCs (Milecell Biotechnologies)
T5 sequence (P30291 whole entry): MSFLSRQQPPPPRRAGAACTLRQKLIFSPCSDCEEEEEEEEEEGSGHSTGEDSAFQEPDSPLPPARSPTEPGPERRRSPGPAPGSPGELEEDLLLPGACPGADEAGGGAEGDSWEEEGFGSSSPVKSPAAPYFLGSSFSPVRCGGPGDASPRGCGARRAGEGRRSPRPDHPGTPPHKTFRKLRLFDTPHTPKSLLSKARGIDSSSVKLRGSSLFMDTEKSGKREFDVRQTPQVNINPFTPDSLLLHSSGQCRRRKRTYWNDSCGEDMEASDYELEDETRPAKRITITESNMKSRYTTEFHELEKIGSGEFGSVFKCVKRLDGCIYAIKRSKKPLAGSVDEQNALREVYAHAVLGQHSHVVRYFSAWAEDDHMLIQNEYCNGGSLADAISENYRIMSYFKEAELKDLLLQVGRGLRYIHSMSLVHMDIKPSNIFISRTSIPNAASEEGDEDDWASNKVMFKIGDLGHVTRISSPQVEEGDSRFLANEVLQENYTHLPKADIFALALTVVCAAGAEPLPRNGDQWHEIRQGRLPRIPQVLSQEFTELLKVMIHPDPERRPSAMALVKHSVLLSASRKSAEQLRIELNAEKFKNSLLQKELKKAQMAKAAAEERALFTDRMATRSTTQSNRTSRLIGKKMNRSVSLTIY
T5 sequence (Q96SW2 whole entry): as the sequence (Q96SW2 whole entry) above
T5 sequence (Q16531 whole entry partner): as the sequence (Q16531 whole entry partner) above

CK1α = biological target: T6, CK1α (Homo sapiens, UniProt P48729+Q96SW2); experiment: Western-blot assay of substrate protein degradation in hPBMCs, CK1α; format: cell-based; settings: 24 hours of compound treatment
T6 construct: endogenous in cells; host or cells: hPBMCs (Milecell Biotechnologies)
T6 sequence (P48729 whole entry): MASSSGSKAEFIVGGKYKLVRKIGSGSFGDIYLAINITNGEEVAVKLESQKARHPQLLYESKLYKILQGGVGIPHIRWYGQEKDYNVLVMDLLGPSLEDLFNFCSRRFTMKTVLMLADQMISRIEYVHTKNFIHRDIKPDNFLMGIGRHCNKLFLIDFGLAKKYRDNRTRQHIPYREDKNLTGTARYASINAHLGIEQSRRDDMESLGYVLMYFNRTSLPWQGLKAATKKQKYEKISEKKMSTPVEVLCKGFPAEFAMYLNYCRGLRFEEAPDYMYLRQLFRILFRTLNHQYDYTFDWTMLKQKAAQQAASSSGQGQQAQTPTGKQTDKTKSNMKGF
T6 sequence (Q96SW2 whole entry): as the sequence (Q96SW2 whole entry) above
T6 sequence (Q16531 whole entry partner): as the sequence (Q16531 whole entry partner) above

IKZF3 = biological target: T7, IKZF3 (Homo sapiens, UniProt Q96SW2+Q9UKT9); experiment: Western-blot assay of substrate protein degradation in hPBMCs, IKZF3; format: cell-based; settings: 24 hours of compound treatment
T7 construct: endogenous in cells; host or cells: hPBMCs (Milecell Biotechnologies)

[2] = compounds tested at 50 nM and 500 nM (concentration of the table not stated)
[3] = 50 nM and 500 nM tested (concentration behind the class not stated)

T1 sequence (Q9UKS7 whole entry): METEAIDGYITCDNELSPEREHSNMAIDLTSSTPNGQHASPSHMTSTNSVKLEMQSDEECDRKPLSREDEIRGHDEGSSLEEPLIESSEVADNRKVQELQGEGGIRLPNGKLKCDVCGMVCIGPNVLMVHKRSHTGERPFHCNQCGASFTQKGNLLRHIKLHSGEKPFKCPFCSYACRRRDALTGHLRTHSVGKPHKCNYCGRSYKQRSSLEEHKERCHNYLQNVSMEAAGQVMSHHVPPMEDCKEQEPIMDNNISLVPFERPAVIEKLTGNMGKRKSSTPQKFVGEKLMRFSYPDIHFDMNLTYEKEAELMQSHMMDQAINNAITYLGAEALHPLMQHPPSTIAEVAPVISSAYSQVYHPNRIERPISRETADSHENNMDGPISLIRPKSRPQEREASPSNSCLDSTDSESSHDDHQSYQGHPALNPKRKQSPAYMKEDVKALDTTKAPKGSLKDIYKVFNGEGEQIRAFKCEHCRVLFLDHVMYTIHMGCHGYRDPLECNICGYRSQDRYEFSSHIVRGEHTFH
T1 sequence (Q96SW2 whole entry): as the sequence (Q96SW2 whole entry) above
T1 sequence (Q16531 whole entry partner): as the sequence (Q16531 whole entry partner) above

| Structure (SMILES) | IC50 [1] | IKZF2 substrate protein remaining % (IKZF2; [2]) | GSPT1 substrate protein remaining % (GSPT1; [2]) | IKZF 1 substrate protein remaining % (IKZF1; [2]) | Weel substrate protein remaining % (WEE1; [2]) | CK1a substrate protein remaining % (CK1α; [2]) | IKZF3 substrate protein remaining % (IKZF3; [2]) | IKZF2 substrate protein remaining % (IKZF2; [3]) | GSPT1 substrate protein remaining % (GSPT1; [3]) | IKZF 1 substrate protein remaining % (IKZF1; [3]) | Weel substrate protein remaining % (WEE1; [3]) | CK1a substrate protein remaining % (CK1α; [3]) | IKZF3 substrate protein remaining % (IKZF3; [3]) |
| --- | --- | --- | --- | --- | --- | --- | --- | --- | --- | --- | --- | --- | --- |
| O=C1CCC(N2Cc3cc(CN4CCN(c5ccc(C(F)(F)F)cn5)CC4)ccc3C2=O)C(=O)N1 (stereo not shown) [GT-04433, 3-(1-oxo-5-((4-(5-(trifluoromethyl)pyridin-2-yl)piperazin-1-yl)methyl)isoindolin-2-yl)piperidine-2,6-dione] | 1000 to 1500 nM | B (80%< substrate protein remaining %≤ 100%) | A (0% ≤ substrate protein remaining % ≤ 80%) | B (80%< substrate protein remaining %≤ 100%) | B (80%< substrate protein remaining %≤ 100%) | B (80%< substrate protein remaining %≤ 100%) | B (80%< substrate protein remaining %≤ 100%) | – | – | – | – | – | – |
| CC1(C)[C@@H]2CC[C@]1(CS(=O)(=O)NCc1ccc3c(c1)CN(C1CCC(=O)NC1=O)C3=O)C(=O)C2 (stereo partly shown) [GT-06927] | 500 to 1000 nM | – | – | – | – | – | – | B (80%< substrate protein remaining %≤ 100%) | B (80%< substrate protein remaining %≤ 100%) | B (80%< substrate protein remaining %≤ 100%) | B (80%< substrate protein remaining %≤ 100%) | A (0% ≤ substrate protein remaining % ≤ 80%) | B (80%< substrate protein remaining %≤ 100%) |
| O=C1CCC(N2C(=O)c3ccc(CN4CCN(c5ncnc6sc(Br)cc56)CC4)cc3C2=O)C(=O)N1 (stereo not shown) [GT-06309, 5-((4-(6-bromothieno[2,3-d]pyrimidin-4-yl)piperazin-1-yl)methyl)-2-(2,6-dioxopiperidin-3-yl)isoindoline-1,3-dione] | 1500 to 1900 nM | – | – | – | – | – | – | A (0% ≤ substrate protein remaining % ≤ 80%) | B (80%< substrate protein remaining %≤ 100%) | A (0% ≤ substrate protein remaining % ≤ 80%) | B (80%< substrate protein remaining %≤ 100%) | B (80%< substrate protein remaining %≤ 100%) | A (0% ≤ substrate protein remaining % ≤ 80%) |
| O=C1CCC(N2Cc3cc(CN4CCN(c5ccnc(F)c5F)CC4)ccc3C2=O)C(=O)N1 (stereo not shown) [GT-04543, 3-(5-((4-(2,3-difluoropyridin-4-yl)piperazin-1-yl)methyl)-1-oxoisoindolin-2-yl)piperidine-2,6-dione] | 500 to 1000 nM | A (0% ≤ substrate protein remaining % ≤ 80%) | A (0% ≤ substrate protein remaining % ≤ 80%) | A (0% ≤ substrate protein remaining % ≤ 80%) | A (0% ≤ substrate protein remaining % ≤ 80%) | B (80%< substrate protein remaining %≤ 100%) | A (0% ≤ substrate protein remaining % ≤ 80%) | – | – | – | – | – | – |

Second part, led by results:

| IC50 [1] | Structure (SMILES) | IKZF2 substrate protein remaining % (IKZF2; [2]) | GSPT1 substrate protein remaining % (GSPT1; [2]) | IKZF 1 substrate protein remaining % (IKZF1; [2]) | Weel substrate protein remaining % (WEE1; [2]) | CK1a substrate protein remaining % (CK1α; [2]) | IKZF3 substrate protein remaining % (IKZF3; [2]) | IKZF2 substrate protein remaining % (IKZF2; [3]) | GSPT1 substrate protein remaining % (GSPT1; [3]) | IKZF 1 substrate protein remaining % (IKZF1; [3]) | Weel substrate protein remaining % (WEE1; [3]) | CK1a substrate protein remaining % (CK1α; [3]) | IKZF3 substrate protein remaining % (IKZF3; [3]) |
| --- | --- | --- | --- | --- | --- | --- | --- | --- | --- | --- | --- | --- | --- |
| 500 to 1000 nM | O=C1CCC(N2Cc3cc(CN4CCN(c5c(F)c(F)nc(F)c5F)CC4)ccc3C2=O)C(=O)N1 (stereo not shown) [GT-04499, 3-(1-oxo-5-((4-(perfluoropyridin-4-yl)piperazin-1-yl)methyl)isoindolin-2-yl)piperidine-2,6-dione] | A (0% ≤ substrate protein remaining % ≤ 80%) | A (0% ≤ substrate protein remaining % ≤ 80%) | A (0% ≤ substrate protein remaining % ≤ 80%) | A (0% ≤ substrate protein remaining % ≤ 80%) | A (0% ≤ substrate protein remaining % ≤ 80%) | A (0% ≤ substrate protein remaining % ≤ 80%) | – | – | – | – | – | – |
| < 500 nM | O=C1CCC(N2Cc3cc(CN4CCN(c5ccnc(Br)c5F)CC4)ccc3C2=O)C(=O)N1 (stereo not shown) [GT-04928, 3-(5-((4-(2-bromo-3-fluoropyridin-4-yl)piperazin-1-yl)methyl)-1-oxoisoindolin-2-yl)piperidine-2,6-dione] | B (80%< substrate protein remaining %≤ 100%) | A (0% ≤ substrate protein remaining % ≤ 80%) | B (80%< substrate protein remaining %≤ 100%) | B (80%< substrate protein remaining %≤ 100%) | B (80%< substrate protein remaining %≤ 100%) | B (80%< substrate protein remaining %≤ 100%) | – | – | – | – | – | – |
| 500 to 1000 nM | Cc1csc2ncnc(N3CCN(Cc4ccc5c(c4)C(=O)N(C4CCC(=O)NC4=O)C5=O)CC3)c12 (stereo not shown) [GT-06304, 2-(2,6-dioxopiperidin-3-yl)-5-((4-(5-methylthieno[2,3-d]pyrimidin-4-yl)piperazin-1-yl)methyl)isoindoline-1,3-dione] | – | – | – | – | – | – | A (0% ≤ substrate protein remaining % ≤ 80%) | B (80%< substrate protein remaining %≤ 100%) | A (0% ≤ substrate protein remaining % ≤ 80%) | B (80%< substrate protein remaining %≤ 100%) | B (80%< substrate protein remaining %≤ 100%) | B (80%< substrate protein remaining %≤ 100%) |
| 500 to 1000 nM | O=C1CCC(N2Cc3cc(CN4CCN(c5c(Cl)cncc5Br)CC4)ccc3C2=O)C(=O)N1 (stereo not shown) [GT-04600, 3-(5-((4-(3-bromo-5-chloropyridin-4-yl)piperazin-1-yl)methyl)-1-oxoisoindolin-2-yl)piperidine-2,6-dione] | A (0% ≤ substrate protein remaining % ≤ 80%) | A (0% ≤ substrate protein remaining % ≤ 80%) | A (0% ≤ substrate protein remaining % ≤ 80%) | A (0% ≤ substrate protein remaining % ≤ 80%) | B (80%< substrate protein remaining %≤ 100%) | A (0% ≤ substrate protein remaining % ≤ 80%) | – | – | – | – | – | – |
| < 500 nM | O=C1CCC(N2Cc3cc(CN4CCN(c5ncnc(Cl)c5Cl)CC4)ccc3C2=O)C(=O)N1 (stereo not shown) [GT-04501, 3-(5-((4-(5,6-dichloropyrimidin-4-yl)piperazin-1-yl)methyl)-1-oxoisoindolin-2-yl)piperidine-2,6-dione] | A (0% ≤ substrate protein remaining % ≤ 80%) | A (0% ≤ substrate protein remaining % ≤ 80%) | A (0% ≤ substrate protein remaining % ≤ 80%) | A (0% ≤ substrate protein remaining % ≤ 80%) | A (0% ≤ substrate protein remaining % ≤ 80%) | A (0% ≤ substrate protein remaining % ≤ 80%) | – | – | – | – | – | – |
| < 500 nM | O=C1CCC(N2Cc3cc(CN4CCN(c5nc6c(c(N7CCOCC7)n5)SCC6)CC4)ccc3C2=O)C(=O)N1 (stereo not shown) [GT-04694, 3-(5-((4-(4-morpholino-6,7-dihydrothieno[3,2-d]pyrimidin-2-yl)piperazin-1-yl)methyl)-1-oxoisoindolin-2-yl)piperidine-2,6-dione] | A (0% ≤ substrate protein remaining % ≤ 80%) | A (0% ≤ substrate protein remaining % ≤ 80%) | B (80%< substrate protein remaining %≤ 100%) | A (0% ≤ substrate protein remaining % ≤ 80%) | B (80%< substrate protein remaining %≤ 100%) | A (0% ≤ substrate protein remaining % ≤ 80%) | – | – | – | – | – | – |
